Results from patent US5262411A, “Isocephem derivatives, and antimicrobial composition containing the derivatives” (Otsuka Pharmaceutical Co., Ltd., priority 1989, dated 1993).
≈ marks a conversion by molar mass, not a printed value. Like-named read-outs stand apart in the source and are kept apart here.

Assays:
Type in all cases: cell-based
M. moganii IIDkono = assay: MIC against M. moganii IIDkono by the plate diluted method
Description: (§1) In order to investigate the in vitro activity of the test compounds against various bacteria, the minimal inhibitory concentration (MIC) values were determined by the plate diluted method (See CHEMOTHERAPY, 22, 1126-1128, 1974.)
(§2) Each strain was adjusted to 1×10^6 cells/ml (O.D. 600 mμ, 0.07 to 0.16).

S. marcescens IFO 12648 = assay: MIC against S. marcescens IFO 12648 by the plate diluted method; settings: Serratia marcescens, IFO12648
Description: as §1, §2

P. aeruginosa E-2 = assay: MIC against P. aeruginosa E-2 by the plate diluted method; settings: Pseudomonas aeruginosa, E2
Description: as §1, §2

S. aureaus FDA-209P = assay: MIC against S. aureaus FDA-209P by the plate diluted method; settings: Staphylococcus aureus, FDA209P
Description: as §1, §2

A. calcoaceticus Ac-54 = assay: MIC against A. calcoaceticus Ac-54 by the plate diluted method; settings: Acinetobacter calcoaceticus, AC54
Description: as §1, §2

K. pneumoniae NCTC-9632 = assay: MIC against K. pneumoniae NCTC-9632 by the plate diluted method; settings: Klebsiella pneumoniae, NCTC9632
Description: as §1, §2

P. aeruginosa ATCC-10145 = assay: MIC against P. aeruginosa ATCC-10145 by the plate diluted method; settings: Pseudomonas aeruginosa, ATCC10145
Description: as §1, §2

E. coli NIHJ JC-2 = assay: MIC against E. coli NIHJ JC-2 by the plate diluted method; settings: Escherichia coli, NIHJJC2
Description: as §1, §2

E. coli No. 29 = assay: MIC against E. coli No. 29 by the plate diluted method; settings: Escherichia coli, 1×10^6 cells/ml
Description: as §1, §2

[1] = M. moganii IIDkono, 1×10^6 cells/ml, read-out: MIC
[2] = S. marcescens IFO 12648, 1×10^6 cells/ml, read-out: MIC
[3] = P. aeruginosa E-2, 1×10^6 cells/ml, read-out: MIC
[4] = S. aureaus FDA-209P, 1×10^6 cells/ml, read-out: MIC
[5] = A. calcoaceticus Ac-54, 1×10^6 cells/ml, read-out: MIC
[6] = K. pneumoniae NCTC-9632, 1×10^6 cells/ml, read-out: MIC
[7] = P. aeruginosa ATCC-10145, 1×10^6 cells/ml, read-out: MIC
[8] = E. coli NIHJ JC-2, 1×10^6 cells/ml, read-out: MIC

Compound | MIC (M. moganii IIDkono) [µg/mL] | MIC (S. marcescens IFO 12648) [µg/mL] | MIC (P. aeruginosa E-2) [µg/mL] | MIC (S. aureaus FDA-209P) [µg/mL] | MIC (A. calcoaceticus Ac-54) [µg/mL] | MIC (K. pneumoniae NCTC-9632) [µg/mL] | MIC (P. aeruginosa ATCC-10145) [µg/mL] | MIC (E. coli NIHJ JC-2) [µg/mL] | MIC (M. moganii IIDkono; [1]) [µg/mL] | MIC (S. marcescens IFO 12648; [2]) [µg/mL] | MIC (P. aeruginosa E-2; [3]) [µg/mL] | MIC (S. aureaus FDA-209P; [4]) [µg/mL] | MIC (A. calcoaceticus Ac-54; [5]) [µg/mL] | MIC (E. coli No. 29) [µg/mL] | MIC (K. pneumoniae NCTC-9632; [6]) [µg/mL] | MIC (P. aeruginosa ATCC-10145; [7]) [µg/mL] | MIC (E. coli NIHJ JC-2; [8]) [µg/mL]
CC(C)(O/N=C(\C(=O)N[C@@H]1C(=O)N2C(C(=O)[O-])=C(C[n+]3ccccc3)CS[C@H]12)c1csc(N)n1)C(=O)O [CAZ, Ceftazizime, reference compound] | 0.05 (≈ 0.0915 µM) | 0.024 (≈ 0.0439 µM) | 1.56 (≈ 2.85 µM) | 3.13 (≈ 5.73 µM) | 1.56 (≈ 2.85 µM) | 0.05 (≈ 0.0915 µM) | 0.78 (≈ 1.43 µM) | 0.2 (≈ 0.366 µM) |  |  |  |  |  |  |  |  | 
Nc1nc(/C(=N/OCc2cc(=O)c(O)cn2O)C(=O)N[C@@H]2C(=O)N3C(C(=O)O)=C(CSc4nnnn4CCO)SC[C@H]23)cs1 [No. 11, (6S,7S)-7-[(Z)-2-(2-aminothiazol-4-yl)-2-(1,5-dihydroxy-4-pyridone-2-ylmethoxyimino)acetamide]-3-[1-(2-hydroxyethyl)-1H-tetrazole-5-ylthiomethyl]isocephem-4-carboxylic acid] |  |  |  |  |  |  |  |  | 0.024 (≈ 0.036 µM) | 0.012 (≈ 0.018 µM) | 0.05 (≈ 0.075 µM) | 50 (≈ 75 µM) | 0.2 (≈ 0.3 µM) | 0.05 (≈ 0.075 µM) | 0.012 (≈ 0.018 µM) | 0.05 (≈ 0.075 µM) | 
Nc1nc(/C(=N/OCc2cc(=O)c(O)cn2O)C(=O)N[C@@H]2C(=O)N3C(C(=O)[O-])=C(CSc4cc[n+](CC(=O)O)cc4)SC[C@H]23)cs1 [No. 12, (6S,7S)-7-[(Z)-2-(2-aminothiazol-4-yl)-2-(1,5-dihydroxy-4-pyridone-2-ylmethoxyimino)acetamide]-3-[(1-carboxymethyl-4-pyridinio)thiomethyl]isocephem-4-carboxylate] |  |  |  |  |  |  |  |  | 0.1 (≈ 0.145 µM) | 0.05 (≈ 0.0725 µM) | 0.2 (≈ 0.29 µM) | 12.5 (≈ 18.1 µM) | 0.39 (≈ 0.565 µM) | 0.012 (≈ 0.0174 µM) | ≤ 0.006 | 0.1 (≈ 0.145 µM) | 
Cc1nc(SCC2=C(C(=O)O)N3C(=O)[C@@H](NC(=O)/C(=N\OCc4cc(=O)c(O)cn4O)c4csc(N)n4)[C@H]3CS2)sc1CC(=O)O [No. 13, (6S,7S)-7-[(Z)-2-(2-aminothiazol-4-yl)-2-(1,5-dihydroxy-4-pyridone-2-ylmethoxyimino)acetamide]-3-[(5-carboxymethyl-4-methyl-thiazol-2-yl)thiomethyl]isocephem-4-carboxylic acid] |  |  |  |  |  |  |  |  | 0.024 (≈ 0.0338 µM) | 0.012 (≈ 0.0169 µM) | 0.05 (≈ 0.0704 µM) | 100 (≈ 141 µM) | 0.012 (≈ 0.0169 µM) | 0.012 (≈ 0.0169 µM) | ≤ 0.006 | 0.05 (≈ 0.0704 µM) | 
CC(C)(O/N=C(\C(=O)N[C@@H]1C(=O)N2C(C(=O)[O-])=C(CSc3cc[n+](Cc4cc(=O)c(O)c[nH]4)cc3)CS[C@H]12)c1csc(N)n1)C(=O)O [No. 14] | 0.05 (≈ 0.0712 µM) |  |  |  |  |  |  |  |  | 0.024 (≈ 0.0342 µM) | 0.1 (≈ 0.142 µM) | 6.25 (≈ 8.91 µM) | 0.39 (≈ 0.556 µM) | 0.05 (≈ 0.0712 µM) | 0.012 (≈ 0.0171 µM) | 0.2 (≈ 0.285 µM) | 
CC(C)(O/N=C(\C(=O)N[C@@H]1C(=O)N2C(C(=O)[O-])=C(CSc3cc[n+](CC(=O)NNC(=O)c4ccc(O)c(O)c4)cc3)CS[C@H]12)c1csc(N)n1)C(=O)O [No. 15, (6R,7R)-7-[(Z)-2-(2-aminothiazol-4-yl)-2-(1-carboxy-1-methylethoxy)imino]acetamide-3-[1-(N-3,4-dihydroxybenzamide)carbamoylmethyl-4-pyridinio]thiomethyl-3-cephem-4-carboxylate] | 0.05 (≈ 0.0635 µM) |  |  | 3.13 (≈ 3.98 µM) |  |  |  |  |  | 0.05 (≈ 0.0635 µM) | 0.05 (≈ 0.0635 µM) |  | 0.1 (≈ 0.127 µM) | 0.012 (≈ 0.0153 µM) | 0.012 (≈ 0.0153 µM) | 0.05 (≈ 0.0635 µM) | 
CC(C)(O/N=C(\C(=O)N[C@@H]1C(=O)N2C(C(=O)[O-])=C(CSc3cc[n+](CC(=O)c4ccc(O)c(O)c4)cc3)CS[C@H]12)c1csc(N)n1)C(=O)O [No. 16, (6R,7R)-7-[(Z)-2-(2-aminothiazol-4-yl)-2-(1-carboxy-1-methylethoxy)iminoacetamide]-3-[[1-[2-(3,4-dihydroxyphenyl)-2-oxo]ethyl]-4-pyridinio]thiomethyl-3-cephem-4-carboxylate] |  |  |  | 1.56 (≈ 2.14 µM) |  |  |  |  | 0.05 (≈ 0.0686 µM) | 0.024 (≈ 0.0329 µM) | 0.1 (≈ 0.137 µM) |  | 0.05 (≈ 0.0686 µM) | 0.012 (≈ 0.0165 µM) | 0.012 (≈ 0.0165 µM) | 0.1 (≈ 0.137 µM) | 
CO/N=C(\C(=O)N[C@@H]1C(=O)N2C(C(=O)[O-])=C(CSc3cc[n+](CC(=O)c4ccc(O)c(O)c4)cc3)CS[C@H]12)c1csc(N)n1 [No. 17, (6R,7R)-[(Z)-2-(2-aminothiazol-4-yl)-2-methoxyiminoacetamide]-3-[[1-[2-(3,4-dihydroxyphenyl)-2-oxo]ethyl]-4-pyridinio]thiomethyl-3-cephem-4-carboxylat] |  |  |  |  |  |  |  |  | 0.1 (≈ 0.152 µM) | 0.05 (≈ 0.0761 µM) | 0.39 (≈ 0.594 µM) | 0.39 (≈ 0.594 µM) | 0.1 (≈ 0.152 µM) | 0.012 (≈ 0.0183 µM) | 0.012 (≈ 0.0183 µM) | 0.2 (≈ 0.305 µM) | 
Cc1nc(SCC2=C(C(=O)O)N3C(=O)[C@@H](NC(=O)/C(=N\OCc4cc(=O)c(O)cn4O)c4nsc(N)n4)[C@H]3CS2)sc1CC(=O)O [No. 18, (6S,7S)-7-[(Z)-2-(5-amino-1,2,4-thiadiazol-3-yl)-2-(1,5-dihydroxy-4-pyridone-2-ylmethoxyimino)acetamide]-3-(5-carboxymethyl-4-methylthiazol-2-ylthiomethyl)isocephem-4-carboxylic acid] | 0.05 (≈ 0.0703 µM) |  |  |  |  |  |  |  |  | 0.024 (≈ 0.0338 µM) | 0.1 (≈ 0.141 µM) | 100 (≈ 141 µM) | 0.1 (≈ 0.141 µM) |  | 0.024 (≈ 0.0338 µM) | 0.1 (≈ 0.141 µM) | 0.1 (≈ 0.141 µM)
Cc1nc(SCC2=C(C(=O)O)N3C(=O)[C@@H](NC(=O)/C(=N\OCc4cc(=O)c(O)cn4O)c4nsc(N)n4)[C@H]3SC2)sc1CC(=O)O [No. 19, (6R,7R)-7-[(Z)-2-(5-amino-1,2,4-thiadiazol-3-yl)-2-(1,5-dihydroxy-4-pyridone-2-ylmethoxyimino)acetamide]-3-(5-carboxymethyl-4-methylthiazol-2-ylthiomethyl)-3-cephem-4-carboxylic acid] | 0.05 (≈ 0.0703 µM) |  |  |  |  |  |  |  |  | 0.024 (≈ 0.0338 µM) | 0.1 (≈ 0.141 µM) | 100 (≈ 141 µM) | 0.05 (≈ 0.0703 µM) |  | 0.024 (≈ 0.0338 µM) | 0.05 (≈ 0.0703 µM) | 0.1 (≈ 0.141 µM)
